We go through 14 compounds from patent US6620585B1, “Use of ectoenzymes and secreted enzymes to monitor cellular proliferation” (priority 2000, dated 2003).

In brackets after ≈: the same amount, converted by molar mass. Positions of bridges follow the written chain, without caps; N, C: chain ends. Non-standard residues stand in square brackets, D forms with d. Residues, ends and D or L forms follow the SMILES beside them. *: point of attachment. Ileψ(thiazoline)Cys = CC[C@H](C)[C@H](N)C1=N[C@H](C(=O)*)CS1; dOrn = NCCC[C@@H](N)C(=O)O

The subject of one test is bacterial strain engineered for expression of an antisense complementary to a proliferation-required 50S ribosomal protein (rplL and rplJ).
Assay: not given
It is filed as cell-based, E. coli. Particulars: antisense to rplL and rplJ induced, 400 μM IPTG; growth by light scattering at 595 nm, mid-exponential time point. The method, then:
The effectiveness of the above assays was validated using proliferation-required genes from E. coli which were identified using procedures similar to those described above. Antibiotics of various chemical classes and modes of action were purchased from Sigma Chemicals (St. Louis, Mo.). Stock solutions were prepared by dissolving each antibiotic in an appropriate aqueous solution based on information provided by the manufacturer. The final working solution of each antibiotic contained no more than 0.2% (w/v) of any organic solvent. To determine their potency against a bacterial strain engineered for expression of an antisense complementary to a proliferation-required 50S ribosomal protein, each antibiotic was serially diluted two or three fold in growth medium supplemented with the appropriate antibiotic for maintenance of the anti-sense construct. At least ten dilutions were prepared for each antibiotic. 25 μL aliquots of each dilution were transferred to discrete wells of a 384-well microplate (the assay plate) using a multi-channel pipette. Quadruplicate wells were used for each dilution of an antibiotic under each treatment condition (plus and minus inducer). Each assay plate contained twenty wells for cell growth controls (growth media replacing antibiotic), ten wells for each treatment (plus and minus inducer, in this example IPTG). Assay plates were usually divided into the two treatments: half the plate containing induced cells and an appropriate concentrations of inducer (in this example IPTG) to maintain the state of induction, the other half containing non-induced cells in the absence of IPTG.
Cells for the assay were prepared as follows. Bacterial cells containing a construct, from which expression of antisense nucleic acid complementary to rplL and rplJ, which encode proliferation-required 50S ribosomal subunit proteins, is inducible in the presence of IPTG, were grown into exponential growth (OD600 0.2 to 0.3) and then diluted 1:100 into fresh media containing either 400 μM or 0 μM inducer (IPTG). These cultures were incubated at 37° C. for 2.5 hr. After a 2.5 hr incubation, induced and non-induced cells were respectively diluted into an assay medium at a final OD600 value of 0.0004. The medium contained an appropriate concentration of the antibiotic for the maintenance of the antisense construct. In addition, the medium used to dilute induced cells was supplemented with 800 μM IPTG so that addition to the assay plate would result in a final IPTG concentration of 400 μM. Induced and non-induced cell suspensions were dispensed (25 μl/well) into the appropriate wells of the assay plate as discussed previously. The plate was then loaded into a plate reader, incubated at constant temperature, and cell growth was monitored in each well by the measurement of light scattering at 595 nm. Growth was monitored every 5 minutes until the cell culture attained a stationary growth phase. For each concentration of antibiotic, a percentage inhibition of growth was calculated at the time point corresponding to mid-exponential growth for the associated control wells (no antibiotic, plus or minus IPTG). For each antibiotic and condition (plus or minus IPTG), a plot of percent inhibition versus log of antibiotic concentration was generated and the IC50 determined.
On to `CN(C)c1ccc(O)c2c1C[C@H]1C[C@H]3[C@H](N(C)C)C(O)=C(C(N)=O)C(=O)[C@@]3(O)C(O)=C1C2=O` [Minocycline], for which the “IC50 (+IPTG)” value came to 0.003897 µg/mL (≈ 0.00852 µM). For `CN[C@@H]1[C@H](O)[C@H](NC)[C@H]2O[C@@]3(O)C(=O)C[C@@H](C)O[C@H]3O[C@@H]2[C@H]1O` [Spectinomycin], the “IC50 (+IPTG)” value is <0.156 µg/mL.

Staying with this test, now noted: significant decrease in IC50 in the presence of inducer (IPTG).
Regarding `CC[C@H](C)[C@H](N)C1=N[C@H](C(=O)N[C@@H](CC(C)C)C(=O)N[C@H](CCC(=O)O)C(=O)N[C@H](C(=O)N[C@H]2CCCCNC(=O)[C@H](CC(N)=O)NC(=O)[C@@H](CC(=O)O)NC(=O)[C@H](Cc3cnc[nH]3)NC(=O)[C@@H](Cc3ccccc3)NC(=O)[C@H]([C@@H](C)CC)NC(=O)[C@@H](CCCN)NC2=O)[C@@H](C)CC)CS1` [Bacitracin] ({Ileψ(thiazoline)Cys}-L[dE]IK[dOrn]I[dF]H[dD]N; lactam 4-C), the “Sensitivity Increased ?” value is listed as “No”. As to `CO/N=C(\C(=O)N[C@@H]1C(=O)N2C(C(=O)O)=C(COC(C)=O)CS[C@H]12)c1csc(N)n1` [Cefotaxime], the “Sensitivity Increased ?” value is “No”. `CO[C@@]1(NC(=O)Cc2cccs2)C(=O)N2C(C(=O)O)=C(COC(N)=O)CS[C@@H]21` [Cefoxitin]: the “Sensitivity Increased ?” value was “No”. On the same count and under the same terms, to `O=C(N[C@H](CO)[C@H](O)c1ccc([N+](=O)[O-])cc1)C(Cl)Cl` [Chloramphenicol] belongs “Yes”; to `CC[C@H]1OC(=O)[C@H](C)[C@@H](O[C@H]2C[C@@](C)(OC)[C@@H](O)[C@H](C)O2)[C@H](C)[C@@H](O[C@@H]2O[C@H](C)C[C@H](N(C)C)[C@H]2O)[C@](C)(O)C[C@@H](C)C(=O)[C@H](C)[C@@H](O)[C@]1(C)O` [Erythromycin], “Yes”; to `CC(=O)O[C@H]1C[C@@]2(C)[C@@H](C[C@@H](O)[C@H]3[C@@]4(C)CC[C@@H](O)[C@@H](C)[C@@H]4CC[C@@]32C)/C1=C(\CCC=C(C)C)C(=O)O` [Fusidic acid], “Yes”. Turning to `CCC[C@@H]1C[C@@H](C(=O)N[C@@H]([C@H]2O[C@H](SC)[C@H](O)[C@@H](O)[C@H]2O)[C@@H](C)O)N(C)C1` [Lincomycin], the “Sensitivity Increased ?” value was “Yes”. Same read-out and setting: to `CCn1cc(C(=O)O)c(=O)c2ccc(C)nc21` [Nalidixic acid] belongs “No”.

For `CN[C@@H]1[C@H](O)[C@H](NC)[C@H]2O[C@@]3(O)C(=O)C[C@@H](C)O[C@H]3O[C@@H]2[C@H]1O` [Spectinomycin], the “Sensitivity Increased ?” value is “Yes”.

Consider `[H]/N=C(/N)N[C@H]1[C@H](O)[C@@H](O)[C@H](O[C@@H]2O[C@@H](C)[C@](O)(C=O)[C@H]2O[C@@H]2O[C@@H](CO)[C@H](O)[C@@H](O)[C@@H]2NC)[C@@H](N/C(N)=N\[H])[C@@H]1O` [Streptomycin], for which the “Sensitivity Increased ?” value was “Yes”. For `NC[C@H]1O[C@H](O[C@H]2[C@H](O)[C@@H](O[C@H]3O[C@H](CO)[C@@H](O)[C@H](N)[C@H]3O)[C@H](N)C[C@@H]2N)[C@H](N)C[C@@H]1O` [Tobramycin], the “Sensitivity Increased ?” value is recorded as “Yes”. For `CN[C@H](CC(C)C)C(=O)N[C@H]1C(=O)N[C@@H](CC(N)=O)C(=O)N[C@H]2C(=O)N[C@H]3C(=O)N[C@H](C(=O)N[C@H](C(=O)O)c4cc(O)cc(O)c4-c4cc3ccc4O)[C@H](O)c3ccc(c(Cl)c3)Oc3cc2cc(c3O[C@@H]2O[C@H](CO)[C@@H](O)[C@H](O)[C@H]2O[C@H]2C[C@](C)(N)[C@H](O)[C@H](C)O2)Oc2ccc(cc2Cl)[C@H]1O` [Vancomycin], the “Sensitivity Increased ?” value is reported as “No”. The same measure, in the same setting: the same measure for Gentamicin: “Yes”.

Another test concerns E. coli strain DJKGC4. Briefly: Chitobiase-based cell growth assay, gentamicin dose response in 1536-well plate. Conditions: 5 hours, 100 μM MNAG. The method, then: FIG. 6 is an E. coli dose response curve to gentamicin. E. coli strain DJKGC4 was inubated with various concentrations of gentamicin for 5 hours in a 1536 well plate in the presence of 100 μM 4-methylumbelliferyl N-acetyl β-D-glucosaminide (MNAG). After removal of background fluorescence, the inhibition of cell growth produced by each gentamicin concentration was calculated by comparison to the fluorescence generated by control cells growing in the absence of gentamicin.
To follow cell growth using the fluorogenic substrate MNAG, E. coli cells of strain DJKGC4 containing a chromosomally integrated, constitutively expressed chitobiase gene were added to an appropriate growth medium containing 100 μM MNAG, and the resulting cell suspension was dispensed into the wells of 1536-well microplates as described above. Following addition of test compounds and controls, plates were incubated at 37° C. and cell growth was followed by measurement of the fluorescent product of chitobiase activity, 4-methylumbelliferone using an Acquest reader (LJL Biosystems, excitation wavelength 360 nm, emission wavelength 425 nm).
An E. coli dose response to gentamicin was obtained by incubating E. coli strain DJKGC4 with various concentrations of gentamicin for 5 hours in a 1536-well plate in the presence of 100 μM MNAG. […]
Take Gentamicin: the “IC50 by the chitobiase-based assay compared with 384 well plate format, turbidity-based assays” value is reported as “indistinguishable”.
